Results reported in PubChem BioAssay AID2060903 (Molecular Pharmacology Branch, DTP, NCI, 2025).
Values joined by “and” are separate entries in the source; they are usually repeats but may differ in a detail not shown here. Equal values may be shown once. Each block holds one compound with its values, some of them ahead of it.

System: 377384-186-R-J1-PDC complex spheroid viability
Assay: Anticancer human tumor 377384-186-R-J1-PDC patient-derived pancreatic carcinoma cell line growth inhibition [RAS]
Conditions: for viability, T/C: stronger effect = lower value
Source text: RAS pathway inhibitors in Combinations in Complex Spheroids
A high-throughput screen of multi-cell type tumor spheroids was designed to identify active combinations of RAS pathway inhibitors and targeted small molecules. Complex spheroids include a stromal component modeled by human endothelial cells (HUVEC) and fibroblasts modeled by human mesenchymal stem cells (MSCs). The concentration ranges selected for each drug and investigational agent were based upon clinically achievable concentrations if the clinical Cmax of the agent was known.
Compounds. The drugs and investigational agents: abemaciclib (NSC768073), cobimetinib (NSC768068), divarasib (GDC6063, NSC841802), docetaxel (NSC628503), GDC-1971 (RLY-1971, NSC841576), gemcitabine (NSC613327), inavolisib (NSC800729), ipatasertib (NSC767898), KB-0742 (NSC834161), MRTX-1133 (NSC836407), osimertinib (NSC779217), RMC-4630 (NSC839698), RMC-6236 (NSC851965), RMC-6291 (NSC852671), Ro-3306 (NSC812927), sapanisertib (NSC764658), SN-38 (NSC673596), staurosporine (NSC755774), SY5609 (NSC837396), and tovorafenib (DAY101, NSC766906), were obtained from the National Cancer Institute (NCI) Developmental Therapeutics Program Chemical Repository. The FDA-approved anticancer drug set is available from the NCI Developmental Therapeutics Program. […] The stock solutions were prepared in dimethyl sulfoxide (DMSO, Sigma-Aldrich, St. Louis, MO, cat. D2650) at 800-fold the tested concentration and stored at -70 degrees C prior to their use. All drugs and investigational agents were tested over a range starting from a high concentration at or near the clinical Cmax and decreasing in half-log increments. If the clinical Cmax for an agent had not been determined, the highest concentration tested was 10 microM.
Cell Culture. All cells were maintained in an incubator at 37 degrees C and 5% CO2 with 95% humidity. The PDC lines were cultured according to standard operating procedures established by the NCI PDMR. All PDCs were thawed and cultured in Matrigel-coated flasks prepared with a working solution of 1X Ham's F-12 nutrient mix, without supplementation (Invitrogen, Waltham, MA, cat. 11765054), 100 U/mL penicillin-streptomycin (Invitrogen, cat. 15140122), and 2.5% Matrigel (Corning Inc., Corning, NY, cat. 354248) for the first three passages. The 362531-283-R-J2-PDC and 782815-120-R-J1-PDC lines were cultured in 6C/Colon 1B media, which includes advanced DMEM/F-12 (Thermo Fisher Scientific, cat. 12634028), 10 mM HEPES (Thermo Fisher Scientific, cat. 15630080), 1X GlutaMAX supplement (Thermo Fisher Scientific, cat. 35050061), 0.1 mg/mL primocin (InvivoGen, San Diego, CA, cat. ant-pm-2), 10% defined fetal bovine serum, heat inactivated (HyClone Laboratories Inc., Logan, UT, cat. SH30070.03HI), 50% L-WRN conditioned media (ATCC, cat. CRL-3276), 1.25 mM N-Acetyl-L-cysteine (Sigma-Aldrich, cat. A9165), 10 mM nicotinamide (Sigma-Aldrich, cat. N0636), 1X B-27 supplement (Thermo Fisher Scientific, cat. 17504044), 1X N-2 supplement (Thermo Fisher Scientific, cat. 17502048), 50 ng/mL human EGF (Thermo Fisher Scientific, cat. PHG0311), and 10 microM Y-27632 dihydrochloride (Tocris Bioscience, cat. 1254). The K12877-001-R-J1-PDC line was cultured in 6I media, which includes all 6C/Colon 1B media plus 10 ng/mL human FGF-10 (PeproTech, cat. 100-26), 1 ng/mL human FGF-2 (PeproTech, cat. 100-18B), 1 µM prostaglandin E2 (Tocris Bioscience, cat. 2296), […] hydrocortisone (Sigma-Aldrich, cat. H4001), and […] bovine insulin (Sigma-Aldrich, cat. I6634). The K86415-001-R-J1-PDC line was cultured in 6D media, which includes all 6C/Colon 1B media components minus the L-WRN conditioned media. The 485176-168-R4-J1-PDC was cultured in PANC media, which includes all 6C/Colon 1B media plus 100 ng/mL human FGF-10 (PeproTech, cat. 100-26), 500 nM SB-431542 (Selleckchem, cat. S1067), and 10 nM gastrin (Tocris Bioscience, cat. 3006). […]

[1] = curve of first compound, second compound 0.0316 µM
[2] = curve of first compound, second compound 0.1 µM
[3] = curve of first compound, second compound 0.316 µM
[4] = curve of first compound, second compound 1 µM
[5] = curve of first compound, second compound 3.16 µM
[6] = curve of first compound, second compound 10 µM
[7] = second compound 0.0316 µM, first compound 0.00316 µM
[8] = second compound 0.0316 µM, first compound 0.01 µM
[9] = second compound 0.0316 µM, first compound 0.0316 µM
[10] = second compound 0.0316 µM, first compound 0.1 µM
[11] = second compound 0.0316 µM, first compound 0.316 µM
[12] = second compound 0.0316 µM, first compound 1 µM
[13] = second compound 0.1 µM, first compound 0.00316 µM
[14] = second compound 0.1 µM, first compound 0.01 µM
[15] = second compound 0.1 µM, first compound 0.0316 µM
[16] = second compound 0.1 µM, first compound 0.1 µM
[17] = second compound 0.1 µM, first compound 0.316 µM
[18] = second compound 0.1 µM, first compound 1 µM
[19] = second compound 0.316 µM, first compound 0.00316 µM
[20] = second compound 0.316 µM, first compound 0.01 µM
[21] = second compound 0.316 µM, first compound 0.0316 µM
[22] = second compound 0.316 µM, first compound 0.1 µM
[23] = second compound 0.316 µM, first compound 0.316 µM
[24] = second compound 0.316 µM, first compound 1 µM
[25] = second compound 1 µM, first compound 0.00316 µM
[26] = second compound 1 µM, first compound 0.01 µM
[27] = second compound 1 µM, first compound 0.0316 µM
[28] = second compound 1 µM, first compound 0.1 µM
[29] = second compound 1 µM, first compound 0.316 µM
[30] = second compound 1 µM, first compound 1 µM
[31] = second compound 3.16 µM, first compound 0.00316 µM
[32] = second compound 3.16 µM, first compound 0.01 µM
[33] = second compound 3.16 µM, first compound 0.0316 µM
[34] = second compound 3.16 µM, first compound 0.1 µM
[35] = second compound 3.16 µM, first compound 0.316 µM
[36] = second compound 3.16 µM, first compound 1 µM
[37] = second compound 10 µM, first compound 0.00316 µM
[38] = second compound 10 µM, first compound 0.01 µM
[39] = second compound 10 µM, first compound 0.0316 µM
[40] = second compound 10 µM, first compound 0.1 µM
[41] = second compound 10 µM, first compound 0.316 µM
[42] = second compound 10 µM, first compound 1 µM
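Also: spheroids exposed to compounds for seven days before readout.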

SMILES: CC(=O)OC12COC1CC(O)C1(C)C(=O)C(O)C3=C(C)C(OC(=O)C(O)C(NC(=O)OC(C)(C)C)c4ccccc4)CC(O)(C(OC(=O)c4ccccc4)C21)C3(C)C (stereo not drawn)
viability, T/C (compound 0.0316 µM): 9.48% [middle of 4 runs]
viability, T/C (compound 0.1 µM): 12% and 10.2% (2×) and 9.32%
viability, T/C (compound 0.316 µM): 11.3% [middle of 4 runs]
viability, T/C (compound 1 µM): 12.8% [middle of 4 runs]
viability, T/C (compound 3.16 µM): 14.2% [middle of 4 runs]
viability, T/C (compound 10 µM): 13.2% [middle of 4 runs]
IC50 (curve of compound): < 31.6 nM

SMILES: C=CC(=O)Nc1cc(Nc2nccc(-c3cn(C)c4ccccc34)n2)c(OC)cc1N(C)CCN(C)C + C#Cc1c(F)ccc2cc(O)cc(-c3ncc4c(N5CC6CCC(C5)N6)nc(OCC56CCCN5CC(F)C6)nc4c3F)c12
IC50 [1]: < 3.16 nM
IC50 [2]: < 3.16 nM
IC50 [3]: < 3.16 nM
IC50 [4]: < 3.16 nM
IC50 [5]: < 3.16 nM
IC50 [6]: < 3.16 nM
viability, T/C [7]: 23.5%
viability, T/C [8]: 20.6%
viability, T/C [9]: 15.2%
viability, T/C [10]: 11.2%
viability, T/C [11]: 3.98%
viability, T/C [12]: 2.32%
viability, T/C [13]: 11.5%
viability, T/C [14]: 8.96%
viability, T/C [15]: 5.18%
viability, T/C [16]: 3.75%
viability, T/C [17]: 2.22%
viability, T/C [18]: 2.24%
viability, T/C [19]: 8.47%
viability, T/C [20]: 5.04%
viability, T/C [21]: 3.96%
viability, T/C [22]: 2.43%
viability, T/C [23]: 1.28%
viability, T/C [24]: 1.33%
viability, T/C [25]: 3.67%
viability, T/C [26]: 2.76%
viability, T/C [27]: 2.37%
viability, T/C [28]: 1.47%
viability, T/C [29]: 1.51%
viability, T/C [30]: 1.43%
viability, T/C [31]: 1.79%
viability, T/C [32]: 1.63%
viability, T/C [33]: 1.82%
viability, T/C [34]: 1.41%
viability, T/C [35]: 1.37%
viability, T/C [36]: 1.25%
viability, T/C [37]: 1.63%
viability, T/C [38]: 1.14%
viability, T/C [39]: 1.21%
viability, T/C [40]: 0.66%
viability, T/C [41]: 1.89%
viability, T/C [42]: 0.82%

SMILES: O=C(c1ccc(F)c(F)c1Nc1ccc(I)cc1F)N1CC(O)([C@@H]2CCCCN2)C1 + C#Cc1c(F)ccc2cc(O)cc(-c3ncc4c(N5CC6CCC(C5)N6)nc(OCC56CCCN5CC(F)C6)nc4c3F)c12
IC50 [1]: < 3.16 nM
IC50 [2]: < 3.16 nM
IC50 [3]: < 3.16 nM
IC50 [4]: < 3.16 nM
IC50 [5]: < 3.16 nM
IC50 [6]: < 3.16 nM
viability, T/C [7]: 19.3%
viability, T/C [8]: 12%
viability, T/C [9]: 5.6%
viability, T/C [10]: 2.35%
viability, T/C [11]: 0.7%
viability, T/C [12]: 0.29%
viability, T/C [13]: 6.37%
viability, T/C [14]: 4.57%
viability, T/C [15]: 2.3%
viability, T/C [16]: 1.43%
viability, T/C [17]: 0.58%
viability, T/C [18]: 0.35%
viability, T/C [19]: 4.21%
viability, T/C [20]: 2.12%
viability, T/C [21]: 1.39%
viability, T/C [22]: 0.91%
viability, T/C [23]: 0.54%
viability, T/C [24]: 0.22%
viability, T/C [25]: 1.85%
viability, T/C [26]: 1.57%
viability, T/C [27]: 1.12%
viability, T/C [28]: 1.04%
viability, T/C [29]: 0.42%
viability, T/C [30]: 0.15%
viability, T/C [31]: 1.79%
viability, T/C [32]: 1.3%
viability, T/C [33]: 1.31%
viability, T/C [34]: 0.67%
viability, T/C [35]: 0.2%
viability, T/C [36]: 0.21%
viability, T/C [37]: 1.29%
viability, T/C [38]: 0.68%
viability, T/C [39]: 0.68%
viability, T/C [40]: 0.65%
viability, T/C [41]: 0.38%
viability, T/C [42]: 0.17%

The next lines start with results.

IC50 (curve of compound): 2.58 µM [middle of 4 runs]
SMILES: CC(C)NCC(C(=O)N1CCN(c2ncnc3c2C(C)CC3O)CC1)c1ccc(Cl)cc1 (stereo not drawn)
viability, T/C (compound 0.1 µM): 92% [middle of 4 runs]
viability, T/C (compound 0.316 µM): 75.2% [middle of 4 runs]
viability, T/C (compound 1 µM): 63.2% [middle of 4 runs]
viability, T/C (compound 3.16 µM): 51.9% [middle of 4 runs]
viability, T/C (compound 10 µM): 36.2% [middle of 4 runs]

IC50 (curve of compound): > 10000 nM
SMILES: NC1c2ccccc2OC12CCN(c1cnc3c(N4CCCc5ncccc54)n[nH]c3n1)CC2 (stereo not drawn)
viability, T/C (compound 0.1 µM): 83.4% [middle of 4 runs]
viability, T/C (compound 0.316 µM): 80.6% [middle of 4 runs]
viability, T/C (compound 1 µM): 73% [middle of 4 runs]
viability, T/C (compound 3.16 µM): 76.8% [middle of 4 runs]
viability, T/C (compound 10 µM): 70% [middle of 4 runs]
